Literature values in US10729136B2, “Synergistic herbicidal composition and use thereof” (priority 2015, dated 2020).

What was measured:
[1] = 0.05% Rhodasurf DA630 solution, pH 5.5, after 10 days

In the case of `CS(=O)(=O)c1ccc(C(=O)C2C(=O)CCCC2=O)c([N+](=O)[O-])c1` [Form 2, 2-(4-mesyl-2-nitrobenzoyl)cyclohexane-1,3-dione], the “Polymorphic form of the suspension, determined periodically” value (pH between 3.5 and 4, over 3 weeks) is given as “always found to be Form 2”, the “Time for Form 2 to transform to Form 1” value (stirred aqueous suspension, below pH 2.5) is given as no more than 1 h and the “Conversion of Form 2 to Form 1 when seeded” value (stirred aqueous suspension, pH 3, seeded with Form 1) is given as “converted to Form 1 when seeded with Form 1 over four hours”. The “Polymorphic stability of Form 2” value (stirred aqueous suspension, pH 3, unseeded) was “stable” and the “Polymorphic form (microscopy, FT-IR)” value [1] was “still predominately Form 2”.
